Results taken from patent publication US12378249B2, “Isoquinoline compounds and uses thereof” (Genentech, Inc., priority 2018, dated 2025).

Molecular target: HPK1 (Homo sapiens (Human), UniProt Q92918)
Test: HPK1 Lantha Binding Assay (Lanth)
Conditions: 2 nM HPK1, 15 nM Tracer222, Morrison Ki fit, read-out: HPK1 Ki (nM), L = Lanth
Experimental: Example B2: HPK1 Lantha Binding Assay (“Lanth”)
Procedure: I. Compound Dilution:
The compounds to be tested were diluted by preparing 12.5 uL/well of 5 mM compound (100×) in columns 2 and 13 and 10 ul/well of DMSO in columns 3-12, 14-23, and wells A1-H1 and I24-P24 of the compound plate using a Bravo liquid handling platform. For the reference compound, the top concentration was 1 mM. To the plate was added 10 ul 2 mM staurosporine in wells J1-P1 and A24-H24. A 11 point 5-fold compound serial dilution was performed using the Bravo liquid handling platform. From the plate were transferred 2.5 ul of the solutions from column 2 and column 13 to the 10 ul of DMSO in columns 3 and 14 & so on. The compound plate was centrifuged at 2500 rpm for 1 min. From the compound plate was transferred 80 nl of the compounds into an assay plate using the Echo liquid handler system. One compound plate makes two assay plates. Each assay plate is sealed and stored in an N2 cabinet.
The following assay concentrations and times were used: 2 nM HPK1, 2 nM Eu-Anti-GST Ab, and 15 nM Tracer222, with 60 min incubation time.
III. HPK Lantha Binding Assay:
For the binding assay, 4 ul 2X HPK1 and Eu-anti-GST antibody were added to each well of the assay plate using a Multidrop reagent dispenser. The solutions were incubated in a 23 C incubator for 1 h. To each well of the assay plate was added 4 ul 2× Tracer-222 using a Multidrop reagent dispenser. The solutions were again incubated in a 23 C incubator for 1 h. The results of the assay were read using an Envision plate reader with the following parameters:TR_FRET, 340ex/615 and 665em; 100 usec Delay; and 200 usec integration.
Compound Ki was analyzed using Morrison ki fit model in XL-fit • a. fit=(1-((((E+x)+(Ki*(1+(S/Kd))))−(((((E+x)+(Ki*(1+(S/Kd))))^2)−((4*E)*x))^0.5))/(2*E))) • res=(y-fit) • b. Parameters: • E=enzyme concentration • S=Tracer222 concentration, Kd=Tracer222 Kd • All measurements reported using the same units (uM)
Exemplary compounds were tested in the binding assays.

Chain of HPK1 (Homo sapiens (Human), UniProt Q92918) (Q92918 1-346): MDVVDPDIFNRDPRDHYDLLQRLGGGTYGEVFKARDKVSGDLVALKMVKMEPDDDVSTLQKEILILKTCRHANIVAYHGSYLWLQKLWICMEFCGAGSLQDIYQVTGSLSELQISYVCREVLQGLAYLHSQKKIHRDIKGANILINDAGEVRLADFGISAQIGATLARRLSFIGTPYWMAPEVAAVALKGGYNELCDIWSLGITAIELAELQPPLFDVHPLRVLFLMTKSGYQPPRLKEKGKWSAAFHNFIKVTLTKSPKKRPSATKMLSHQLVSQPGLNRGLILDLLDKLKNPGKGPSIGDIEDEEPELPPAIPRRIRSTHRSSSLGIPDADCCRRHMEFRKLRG

| Structure (SMILES) | Ki |
| --- | --- |
| Cc1cc(Nc2cc3cc(-c4cnccc4C)ccc3cn2)ncn1 [Compound 107, 6-(4-methylpyridin-3-yl)-N-(6-methylpyrimidin-4-yl)isoquinolin-3-amine] | 9 nM |
| Fc1cccc(Cl)c1-c1ccc2cnc(Nc3ccncn3)cc2c1 [Compound 104, 6-(2-chloro-6-fluorophenyl)-N-(pyrimidin-4-yl)isoquinolin-3-amine] | 57 nM |
| Clc1cccc(Cl)c1-c1ccc2cnc(Nc3ccncn3)cc2c1 [Compound 101, 6-(2,6-dichlorophenyl)-N-(pyrimidin-4-yl)isoquinolin-3-amine] | 110 nM |
| Cc1ccnc(Nc2cc3cc(-c4cnccc4C)ccc3cn2)c1 [Compound 108, N-(4-methylpyridin-2-yl)-6-(4-methylpyridin-3-yl)isoquinolin-3-amine] | 4.4 nM |
| Cc1ccncc1-c1ccc2cnc(Nc3cc(C(F)F)ccn3)cc2c1 [Compound 106, N-(4-(difluoromethyl)pyridin-2-yl)-6-(4-methylpyridin-3-yl)isoquinolin-3-amine] | 6.6 nM |
| CN1CCC(Cn2cc(Nc3cc4cc(-c5c(Cl)cccc5Cl)ccc4cn3)cn2)C1 (racemic) [Compound 102, (+/-)-6-(2,6-dichlorophenyl)-N-(1-((1-methylpyrrolidin-3-yl)methyl)-1H-pyrazol-4-yl)isoquinolin-3-amine] | 68 nM |
| Clc1cccc(Cl)c1-c1ccc2cnc(Nc3cnn(C4CCOC4)c3)cc2c1 (racemic) [Compound 103, (+/-)-6-(2,6-dichlorophenyl)-N-(1-(tetrahydrofuran-3-yl)-1H-pyrazol-4-yl)isoquinolin-3-amine] | 180 nM |

Molecular target: HPK1 (Homo sapiens (Human), UniProt Q92918, S171E/T165E)
Sequence (Q92918 whole entry T165E/S171E): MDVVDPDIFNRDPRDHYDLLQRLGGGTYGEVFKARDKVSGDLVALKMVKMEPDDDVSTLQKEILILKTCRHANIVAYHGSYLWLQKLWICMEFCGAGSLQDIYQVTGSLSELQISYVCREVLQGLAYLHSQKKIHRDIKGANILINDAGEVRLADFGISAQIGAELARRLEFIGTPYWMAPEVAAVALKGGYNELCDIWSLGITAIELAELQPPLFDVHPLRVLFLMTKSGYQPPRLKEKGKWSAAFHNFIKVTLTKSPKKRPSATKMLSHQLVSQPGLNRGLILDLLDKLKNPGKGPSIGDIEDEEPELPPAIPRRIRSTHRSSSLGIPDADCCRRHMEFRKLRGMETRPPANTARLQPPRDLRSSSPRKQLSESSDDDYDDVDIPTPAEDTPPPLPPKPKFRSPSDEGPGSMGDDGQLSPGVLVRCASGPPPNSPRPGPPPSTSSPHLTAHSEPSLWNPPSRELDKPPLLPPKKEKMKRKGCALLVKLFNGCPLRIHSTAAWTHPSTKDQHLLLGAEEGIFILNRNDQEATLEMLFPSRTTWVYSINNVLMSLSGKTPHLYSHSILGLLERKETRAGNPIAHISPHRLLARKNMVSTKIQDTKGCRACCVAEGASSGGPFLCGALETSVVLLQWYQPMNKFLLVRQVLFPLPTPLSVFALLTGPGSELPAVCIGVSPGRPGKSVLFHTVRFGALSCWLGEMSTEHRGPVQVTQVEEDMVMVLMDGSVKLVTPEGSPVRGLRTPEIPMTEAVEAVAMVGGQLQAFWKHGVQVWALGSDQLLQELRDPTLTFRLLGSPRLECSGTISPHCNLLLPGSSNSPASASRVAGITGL
Test: HPK1-FL HTRF Enzymatic Assay (HTRF)
Assay type: biochemical
Conditions: HPK full length T165E S171E 0.125 nM, ATP 1 mM, Biotin-SLP76 100 nM, read-out: HPK1 Ki (nM), H = HTRF
In short: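 Full-length HPK1 double mutant, preincubated 30 min with compound, then phosphorylates Biotin-SLP-76 at 1 mM ATP for 60 min in HEPES pH 7.5/MgCl2/TCEP/Brij-35 buffer. Phospho-product detected by TR-FRET (Eu-anti-pSLP76, SA-XL665) after 60 min; 665/620 ratio gives % activity, from which Ki is determined.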

| Structure (SMILES) | Ki |
| --- | --- |
| Cc1cc(CN)ncc1-c1cc2cc(Nc3cc4n(n3)CC(=O)N(C)CC4)ncc2cc1F [Compound 212, 2-((6-(6-(aminomethyl)-4-methylpyridin-3-yl)-7-fluoroisoquinolin-3-yl)amino)-6-methyl-5,6-dihydro-4H-pyrazolo[1,5-d][1,4]diazepin-7(8H)-one] | 50 nM |
| Cc1c(-c2cc3cc(Nc4cc5n(n4)Cc4nccn4CC5)ncc3cc2F)cnc2c1NCCO2 [Compound 143, N-(7-fluoro-6-(8-methyl-2,3-dihydro-1H-pyrido[2,3-b][1,4]oxazin-7-yl)isoquinolin-3-yl)-5,6-dihydro-11H-imidazo[1,2-a]pyrazolo[1,5-d][1,4]diazepin-8-amine] | 0.013 nM |
| Cc1c(-c2cc3cc(Nc4cc5n(n4)CC(=O)N(C(C)C)CC5)ncc3c(Cl)c2F)cnc2c1NCCO2 [Compound 115, 2-((8-chloro-7-fluoro-6-(8-methyl-2,3-dihydro-1H-pyrido[2,3-b][1,4]oxazin-7-yl)isoquinolin-3-yl)amino)-6-isopropyl-5,6-dihydro-4H-pyrazolo[1,5-d][1,4]diazepin-7(8H)-one] | 0.2 nM |
| Cc1c(N)cncc1-c1ccc2cnc(Nc3cc4n(n3)CC(=O)N(C(C)C)CC4)cc2c1Cl [Compound 152, 2-((6-(5-amino-4-methylpyridin-3-yl)-5-chloroisoquinolin-3-yl)amino)-6-isopropyl-5,6-dihydro-4H-pyrazolo[1,5-d][1,4]diazepin-7(8H)-one] | 0.028 nM |
| CC(C)N1CCc2cc(Nc3cc4cc(C(=O)N5CCN(C)CC5)c(F)cc4cn3)nn2CC1=O [Compound 124, 2-((7-fluoro-6-(4-methylpiperazine-1-carbonyl)isoquinolin-3-yl)amino)-6-isopropyl-5,6-dihydro-4H-pyrazolo[1,5-d][1,4]diazepin-7(8H)-one] | 63 nM |
| Cc1c(-c2cc3cc(Nc4cc5n(n4)CC(=O)N(C)CC5)ncc3c(F)c2F)cnc2c1NCCO2 [Compound 138, 2-((7,8-difluoro-6-(8-methyl-2,3-dihydro-1H-pyrido[2,3-b][1,4]oxazin-7-yl)isoquinolin-3-yl)amino)-6-methyl-5,6-dihydro-4H-pyrazolo[1,5-d][1,4]diazepin-7(8H)-one] | 0.013 nM |
| Cc1c(-c2cc3cc(Nc4cc5n(n4)Cc4nccn4CC5)ncc3cc2F)cnc2c1NCC[C@H]2O (single isomer, unassigned) [Compound 243b] | 0.02 nM |
| Cc1c(-c2cc3cc(Nc4cc5n(n4)Cc4nccn4CC5)ncc3cc2F)cnc2c1NCC[S+]2[O-] (racemic) [Compound 189, (+/−)-7-(3-((5,6-dihydro-11H-imidazo[1,2-a]pyrazolo[1,5-d][1,4]diazepin-8-yl)amino)-7-fluoroisoquinolin-6-yl)-8-methyl-2,3-dihydro-1H-pyrido[2,3-b][1,4]thiazine 4-oxide] | 0.48 nM |
| Cc1c(-c2cc3cc(Nc4cc5n(n4)Cc4nccn4CC5)ncc3cc2F)cnc2c1NCCCO2 [Compound 183, N-(7-fluoro-6-(9-methyl-1,2,3,4-tetrahydropyrido[2,3-b][1,4]oxazepin-8-yl)isoquinolin-3-yl)-5,6-dihydro-11H-imidazo[1,2-a]pyrazolo[1,5-d][1,4]diazepin-8-amine] | 0.013 nM |
| CN[C@@H]1CCc2c(-c3cc4cc(Nc5cc6n(n5)CC(=O)N(C)CC6)ncc4cc3F)cncc21 (single isomer, unassigned) [Compound 228a] | 8.3 nM |
| Cc1c(-c2cc3cc(Nc4cc5n(n4)CC(=O)N(C)CC5)ncc3cc2F)cnc2c1[C@H](F)CCO2 (single isomer, unassigned) [Compound 235b] | 0.127 nM |
| CNCc1cc(C)c(-c2ccc3cnc(Nc4cc5n(n4)CC(=O)N(C)CC5)cc3c2)c(F)c1 [Compound 222, 2-((6-(2-fluoro-6-methyl-4-((methylamino)methyl)phenyl)isoquinolin-3-yl)amino)-6-methyl-5,6-dihydro-4H-pyrazolo[1,5-d][1,4]diazepin-7(8H)-one] | 5.2 nM |
| Cc1c(-c2cc3cc(Nc4cc5n(n4)CS(=O)(=O)N(C)C5)ncc3cc2F)cnc2c1NCC[C@@H]2O (single isomer, unassigned) [Compound 242a] | 0.457 nM |
| Cc1c(-c2cc3cc(Nc4cc5n(n4)CC(=O)N(C)CC5)ncc3cc2F)cnc2c1C(O)CCO2 (single isomer, unassigned) [Compound 180a, 2-((7-Fluoro-6-(4-hydroxy-5-methyl-3,4-dihydro-2H-pyrano[2,3-b]pyridine-6-yl)isoquinolin-3-yl)amino)-6-methyl-5,6-dihydro-4H-pyrazolo[1,5-d][1,4]diazepin-7(8H)-one] | 0.05 nM |
| COc1cc(C)c(-c2cc3cc(Nc4cc5n(n4)CC(=O)N(C)CC5)ncc3cc2F)cn1 [Compound 137, 2-((7-fluoro-6-(6-methoxy-4-methylpyridin-3-yl)isoquinolin-3-yl)amino)-6-methyl-5,6-dihydro-4H-pyrazolo[1,5-d][1,4]diazepin-7(8H)-one] | 2.2 nM |
